Measurements from the kinase profiling compilation of Christmann-Franck et al. (2016).

Key:
Test in all cases: radiometric filter-binding kinase assay
EEF2K (human) = EEF2K (human) (UniProt O00418)
PRKAA1 or PRKAA2 (rat) = conditions: accession and sequence are those of the human protein
STK3 (human) = STK3 (human) (UniProt Q13188)
MARK1 (human) = MARK1 (human) (UniProt Q9P0L2)
SYK (human) = SYK (human) (UniProt P43405)
PIM2 (human) = PIM2 (human) (UniProt Q9P1W9)
MAPK9 (human) = MAPK9 (human) (UniProt P45984)
MKNK1 (human) = MKNK1 (human) (UniProt Q9BUB5)
DAPK1 (human) = DAPK1 (human) (UniProt P53355)
MAPKAPK5 (human) = MAPKAPK5 (human) (UniProt Q8IW41)
PIM1 (human) = PIM1 (human) (UniProt P11309)
PRKCZ (human) = PRKCZ (human) (UniProt Q05513)
PIM3 (human) = PIM3 (human) (UniProt Q86V86)
MELK (human) = MELK (human) (UniProt Q14680)
DYRK1A (human) = DYRK1A (human) (UniProt Q13627)
FGFR1 (human) = FGFR1 (human) (UniProt P11362)
[1] = system: SGK1 (human), O00141 [S422D]
CAMKK2 (human) = CAMKK2 (human) (UniProt Q96RR4)
MAPK3 (human) = MAPK3 (human) (UniProt P27361)
MAPK13 (human) = MAPK13 (human) (UniProt O15264); conditions: compound 1.0 µM
BRSK1 (human) = BRSK1 (human) (UniProt Q8TDC3)
MAPKAPK2 (human) = MAPKAPK2 (human) (UniProt P49137)
BRSK2 (human) = BRSK2 (human) (UniProt Q8IWQ3)
GSK3B (human) = GSK3B (human) (UniProt P49841)
PAK7 (human) = PAK7 (human) (UniProt Q9P286)
PHKG1 (human) = PHKG1 (human) (UniProt Q16816)
ERBB4 (human) = ERBB4 (human) (UniProt Q15303)
IKBKE (human) = IKBKE (human) (UniProt Q14164)
MAPK12 (human) = MAPK12 (human) (UniProt P53778)
PRKACA (human) = PRKACA (human) (UniProt P17612)
EPHB4 (human) = EPHB4 (human) (UniProt P54760)
IGF1R (human) = IGF1R (human) (UniProt P08069)
HIPK3 (human) = HIPK3 (human) (UniProt Q9H422)

Sequence of DAPK1 (human) (P53355 whole entry, looked up): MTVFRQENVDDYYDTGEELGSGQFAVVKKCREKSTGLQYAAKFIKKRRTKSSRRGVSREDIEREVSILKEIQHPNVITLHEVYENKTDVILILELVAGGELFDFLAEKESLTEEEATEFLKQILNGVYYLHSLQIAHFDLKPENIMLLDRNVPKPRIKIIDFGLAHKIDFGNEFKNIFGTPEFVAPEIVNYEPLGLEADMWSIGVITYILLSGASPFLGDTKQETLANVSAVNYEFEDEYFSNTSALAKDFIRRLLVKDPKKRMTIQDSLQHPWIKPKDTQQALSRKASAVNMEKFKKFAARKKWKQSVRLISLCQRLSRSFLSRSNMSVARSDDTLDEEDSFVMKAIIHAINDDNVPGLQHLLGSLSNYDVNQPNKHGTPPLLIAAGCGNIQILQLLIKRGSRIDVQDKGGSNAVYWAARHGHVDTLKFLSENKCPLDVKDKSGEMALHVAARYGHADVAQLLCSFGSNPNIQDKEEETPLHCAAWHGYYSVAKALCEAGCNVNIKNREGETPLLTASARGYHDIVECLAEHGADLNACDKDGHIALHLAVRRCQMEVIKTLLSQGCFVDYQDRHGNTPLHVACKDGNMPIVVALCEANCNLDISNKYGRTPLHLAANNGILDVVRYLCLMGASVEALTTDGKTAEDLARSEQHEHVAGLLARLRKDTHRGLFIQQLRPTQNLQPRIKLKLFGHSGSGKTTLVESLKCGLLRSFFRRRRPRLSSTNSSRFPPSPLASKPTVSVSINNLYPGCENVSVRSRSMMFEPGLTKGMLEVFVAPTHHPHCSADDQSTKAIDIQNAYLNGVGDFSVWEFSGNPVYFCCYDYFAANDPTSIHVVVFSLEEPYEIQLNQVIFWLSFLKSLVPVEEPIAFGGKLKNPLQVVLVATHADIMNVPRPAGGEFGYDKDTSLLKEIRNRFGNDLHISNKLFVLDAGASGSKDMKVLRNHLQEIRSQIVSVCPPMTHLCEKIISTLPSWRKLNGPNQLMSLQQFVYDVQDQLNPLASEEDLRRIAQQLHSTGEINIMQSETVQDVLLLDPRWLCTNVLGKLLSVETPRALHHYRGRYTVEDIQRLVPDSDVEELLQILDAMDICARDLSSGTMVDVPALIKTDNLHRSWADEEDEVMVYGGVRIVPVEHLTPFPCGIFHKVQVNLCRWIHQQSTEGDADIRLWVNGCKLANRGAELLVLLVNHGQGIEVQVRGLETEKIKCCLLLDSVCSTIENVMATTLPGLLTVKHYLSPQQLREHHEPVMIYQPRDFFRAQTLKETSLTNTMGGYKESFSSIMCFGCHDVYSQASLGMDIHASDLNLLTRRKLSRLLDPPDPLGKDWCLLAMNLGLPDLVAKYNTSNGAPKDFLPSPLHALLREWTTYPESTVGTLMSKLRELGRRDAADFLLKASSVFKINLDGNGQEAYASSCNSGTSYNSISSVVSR
Sequence of MKNK1 (human) (Q9BUB5 whole entry, looked up): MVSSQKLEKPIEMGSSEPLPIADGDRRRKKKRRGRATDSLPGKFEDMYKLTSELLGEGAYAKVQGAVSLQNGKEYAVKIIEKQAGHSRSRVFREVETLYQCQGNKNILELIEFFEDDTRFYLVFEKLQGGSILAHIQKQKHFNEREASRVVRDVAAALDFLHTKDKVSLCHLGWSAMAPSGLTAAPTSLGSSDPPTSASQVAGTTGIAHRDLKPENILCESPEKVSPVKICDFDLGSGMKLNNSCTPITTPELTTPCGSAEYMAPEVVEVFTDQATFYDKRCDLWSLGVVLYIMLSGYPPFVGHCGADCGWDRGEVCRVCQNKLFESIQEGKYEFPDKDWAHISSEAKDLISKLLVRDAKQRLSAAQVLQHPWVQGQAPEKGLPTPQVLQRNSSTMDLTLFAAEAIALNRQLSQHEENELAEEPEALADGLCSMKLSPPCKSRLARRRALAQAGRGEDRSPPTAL
Sequence of BRSK1 (human) (Q8TDC3 whole entry, looked up): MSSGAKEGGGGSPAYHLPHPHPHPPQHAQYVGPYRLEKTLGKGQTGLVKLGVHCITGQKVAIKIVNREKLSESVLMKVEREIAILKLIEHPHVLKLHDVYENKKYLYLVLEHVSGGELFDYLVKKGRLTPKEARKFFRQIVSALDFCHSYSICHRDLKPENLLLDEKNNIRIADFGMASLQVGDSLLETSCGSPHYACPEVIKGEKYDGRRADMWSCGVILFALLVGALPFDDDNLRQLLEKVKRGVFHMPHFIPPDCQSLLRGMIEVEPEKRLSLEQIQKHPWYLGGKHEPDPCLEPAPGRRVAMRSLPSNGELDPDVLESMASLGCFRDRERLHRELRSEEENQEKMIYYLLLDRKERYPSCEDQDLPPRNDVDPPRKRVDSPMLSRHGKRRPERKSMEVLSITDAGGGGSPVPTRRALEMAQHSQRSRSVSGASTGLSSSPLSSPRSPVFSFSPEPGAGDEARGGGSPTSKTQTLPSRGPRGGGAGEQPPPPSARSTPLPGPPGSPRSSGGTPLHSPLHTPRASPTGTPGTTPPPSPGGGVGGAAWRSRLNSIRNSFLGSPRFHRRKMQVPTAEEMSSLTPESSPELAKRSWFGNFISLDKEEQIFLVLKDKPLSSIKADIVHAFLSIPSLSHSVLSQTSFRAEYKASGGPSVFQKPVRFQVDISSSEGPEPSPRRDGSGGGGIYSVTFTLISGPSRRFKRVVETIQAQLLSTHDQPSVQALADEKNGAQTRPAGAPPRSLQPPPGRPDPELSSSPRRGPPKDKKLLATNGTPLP
Sequence of PAK7 (human) (Q9P286 whole entry, looked up): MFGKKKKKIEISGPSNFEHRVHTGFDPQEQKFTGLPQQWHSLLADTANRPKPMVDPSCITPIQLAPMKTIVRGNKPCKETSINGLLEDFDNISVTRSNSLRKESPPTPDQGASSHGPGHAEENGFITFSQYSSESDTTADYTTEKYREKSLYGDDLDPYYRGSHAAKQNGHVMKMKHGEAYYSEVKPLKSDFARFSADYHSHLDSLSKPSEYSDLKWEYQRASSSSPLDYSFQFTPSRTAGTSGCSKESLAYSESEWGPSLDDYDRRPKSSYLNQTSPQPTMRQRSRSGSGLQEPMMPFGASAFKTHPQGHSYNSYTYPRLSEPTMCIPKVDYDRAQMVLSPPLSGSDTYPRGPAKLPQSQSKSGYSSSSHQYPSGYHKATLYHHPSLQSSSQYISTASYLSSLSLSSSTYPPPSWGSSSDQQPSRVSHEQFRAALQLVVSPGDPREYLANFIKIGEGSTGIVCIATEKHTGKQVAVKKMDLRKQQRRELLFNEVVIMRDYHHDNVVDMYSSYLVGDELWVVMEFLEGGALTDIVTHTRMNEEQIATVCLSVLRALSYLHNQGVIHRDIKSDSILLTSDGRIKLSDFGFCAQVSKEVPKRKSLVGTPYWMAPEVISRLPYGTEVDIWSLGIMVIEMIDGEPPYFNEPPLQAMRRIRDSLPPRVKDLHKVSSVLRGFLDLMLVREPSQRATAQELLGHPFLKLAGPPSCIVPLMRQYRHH
Sequence of MARK1 (human) (Q9P0L2 whole entry, looked up): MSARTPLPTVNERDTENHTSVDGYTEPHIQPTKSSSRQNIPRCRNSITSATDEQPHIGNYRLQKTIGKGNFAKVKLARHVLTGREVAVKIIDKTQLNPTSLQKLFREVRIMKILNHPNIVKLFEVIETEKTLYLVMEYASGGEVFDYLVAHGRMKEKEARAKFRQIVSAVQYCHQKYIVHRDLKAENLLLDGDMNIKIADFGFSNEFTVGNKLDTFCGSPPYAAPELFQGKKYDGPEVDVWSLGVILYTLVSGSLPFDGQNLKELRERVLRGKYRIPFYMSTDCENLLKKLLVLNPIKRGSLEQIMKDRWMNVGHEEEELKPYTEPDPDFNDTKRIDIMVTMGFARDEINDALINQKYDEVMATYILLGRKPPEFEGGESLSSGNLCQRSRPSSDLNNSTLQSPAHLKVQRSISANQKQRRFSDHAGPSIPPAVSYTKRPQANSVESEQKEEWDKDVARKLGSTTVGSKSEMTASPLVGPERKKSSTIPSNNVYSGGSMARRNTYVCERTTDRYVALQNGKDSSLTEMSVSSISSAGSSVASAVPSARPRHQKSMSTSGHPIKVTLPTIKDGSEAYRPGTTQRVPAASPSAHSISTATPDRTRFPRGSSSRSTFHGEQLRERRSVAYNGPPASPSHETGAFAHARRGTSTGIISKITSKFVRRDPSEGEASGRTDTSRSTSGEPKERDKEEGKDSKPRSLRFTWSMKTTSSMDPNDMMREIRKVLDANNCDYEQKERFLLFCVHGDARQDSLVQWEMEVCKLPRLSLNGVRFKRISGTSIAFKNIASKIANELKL
Sequence of GSK3B (human) (P49841 whole entry, looked up): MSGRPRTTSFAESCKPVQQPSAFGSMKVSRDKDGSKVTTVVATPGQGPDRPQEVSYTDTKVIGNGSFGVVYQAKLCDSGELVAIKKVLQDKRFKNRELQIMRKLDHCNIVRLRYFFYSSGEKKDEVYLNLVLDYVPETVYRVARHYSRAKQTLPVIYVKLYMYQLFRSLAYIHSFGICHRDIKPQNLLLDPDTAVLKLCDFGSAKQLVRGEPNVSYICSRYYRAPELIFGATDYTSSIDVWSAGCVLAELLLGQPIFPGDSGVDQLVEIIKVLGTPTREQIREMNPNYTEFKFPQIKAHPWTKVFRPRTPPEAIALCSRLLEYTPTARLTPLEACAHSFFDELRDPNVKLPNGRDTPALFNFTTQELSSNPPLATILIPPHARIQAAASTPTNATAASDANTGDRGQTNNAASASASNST
Sequence of MAPK12 (human) (P53778 whole entry, looked up): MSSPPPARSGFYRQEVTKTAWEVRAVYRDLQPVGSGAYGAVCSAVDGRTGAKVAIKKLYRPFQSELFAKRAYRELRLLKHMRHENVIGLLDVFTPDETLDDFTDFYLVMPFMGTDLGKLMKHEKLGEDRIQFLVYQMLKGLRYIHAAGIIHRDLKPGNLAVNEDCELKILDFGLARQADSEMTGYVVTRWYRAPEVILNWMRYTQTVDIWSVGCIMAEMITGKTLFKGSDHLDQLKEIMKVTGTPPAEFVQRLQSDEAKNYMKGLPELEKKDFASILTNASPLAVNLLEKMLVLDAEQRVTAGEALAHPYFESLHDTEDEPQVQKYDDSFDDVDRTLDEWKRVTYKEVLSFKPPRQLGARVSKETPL

residual activity (EEF2K (human); compound 0.1 µM): 102%
residual activity (EEF2K (human); compound 1.0 µM): 100%
residual activity (PRKAA1 or PRKAA2 (rat); compound 0.1 µM): 99%
residual activity (PRKAA1 or PRKAA2 (rat); compound 1.0 µM): 82%
residual activity (STK3 (human); compound 0.1 µM): 107%
residual activity (STK3 (human); compound 1.0 µM): 100%
residual activity (MARK1 (human); compound 0.1 µM): 107%
residual activity (MARK1 (human); compound 1.0 µM): 113%
residual activity (SYK (human); compound 0.1 µM): 109%
residual activity (SYK (human); compound 1.0 µM): 106%
residual activity (PIM2 (human); compound 0.1 µM): 97%
residual activity (PIM2 (human); compound 1.0 µM): 94%
residual activity (MAPK9 (human); compound 0.1 µM): 105%
residual activity (MAPK9 (human); compound 1.0 µM): 90%
residual activity (MKNK1 (human); compound 0.1 µM): 103%
residual activity (MKNK1 (human); compound 1.0 µM): 93%
residual activity (DAPK1 (human); compound 0.1 µM): 94%
residual activity (DAPK1 (human); compound 1.0 µM): 90%
residual activity (MAPKAPK5 (human); compound 0.1 µM): 113%
residual activity (MAPKAPK5 (human); compound 1.0 µM): 99%
residual activity (PIM1 (human); compound 0.1 µM): 105%
residual activity (PIM1 (human); compound 1.0 µM): 97%
residual activity (PRKCZ (human); compound 0.1 µM): 98%
residual activity (PRKCZ (human); compound 1.0 µM): 100%
residual activity (PIM3 (human); compound 0.1 µM): 91%
residual activity (PIM3 (human); compound 1.0 µM): 117%
residual activity (MELK (human); compound 0.1 µM): 111%
residual activity (MELK (human); compound 1.0 µM): 105%
residual activity (DYRK1A (human); compound 0.1 µM): 109%
residual activity (DYRK1A (human); compound 1.0 µM): 104%
residual activity (FGFR1 (human); compound 0.1 µM): 64%
residual activity (FGFR1 (human); compound 1.0 µM): 37%
residual activity ([1]; compound 0.1 µM): 107%
residual activity ([1]; compound 1.0 µM): 103%
residual activity (CAMKK2 (human); compound 0.1 µM): 100%
residual activity (CAMKK2 (human); compound 1.0 µM): 104%
residual activity (MAPK3 (human); compound 0.1 µM): 105%
residual activity (MAPK3 (human); compound 1.0 µM): 100%
residual activity (MAPK13 (human)): 94%
residual activity (BRSK1 (human); compound 0.1 µM): 110%
residual activity (BRSK1 (human); compound 1.0 µM): 95%
residual activity (MAPKAPK2 (human); compound 0.1 µM): 117%
residual activity (MAPKAPK2 (human); compound 1.0 µM): 108%
residual activity (BRSK2 (human); compound 0.1 µM): 117%
residual activity (BRSK2 (human); compound 1.0 µM): 92%
residual activity (GSK3B (human); compound 0.1 µM): 99%
residual activity (GSK3B (human); compound 1.0 µM): 79%
residual activity (PAK7 (human); compound 0.1 µM): 107%
residual activity (PAK7 (human); compound 1.0 µM): 102%
residual activity (PHKG1 (human); compound 0.1 µM): 100%
residual activity (PHKG1 (human); compound 1.0 µM): 112%
residual activity (ERBB4 (human); compound 0.1 µM): 104%
residual activity (ERBB4 (human); compound 1.0 µM): 82%
residual activity (IKBKE (human); compound 0.1 µM): 112%
residual activity (IKBKE (human); compound 1.0 µM): 106%
residual activity (MAPK12 (human); compound 0.1 µM): 102%
residual activity (MAPK12 (human); compound 1.0 µM): 88%
residual activity (PRKACA (human); compound 0.1 µM): 109%
residual activity (PRKACA (human); compound 1.0 µM): 99%
residual activity (EPHB4 (human); compound 0.1 µM): 93%
residual activity (EPHB4 (human); compound 1.0 µM): 93%
residual activity (IGF1R (human); compound 0.1 µM): 97%
residual activity (IGF1R (human); compound 1.0 µM): 103%
residual activity (HIPK3 (human); compound 0.1 µM): 105%
residual activity (HIPK3 (human); compound 1.0 µM): 99%
Structure (SMILES): Cc1cccc(-c2nn(C(=S)Nc3ccccc3)cc2-c2ccnc3ccccc23)n1
